Test system: NCI-H211 tumor spheroids, viability percent test/control
Experiment: Anticancer human tumor NCI-H211 cell line growth inhibition;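 further: spheroids exposed to agents for seven days before readout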
Conditions: spheroids with HUVEC and MSC; for IC50: curve of first compound; for viability, T/C: stronger effect = lower value; active means viability on the fitted dose curve at most 10% of control; inactive means the rest
Outline: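 Single agents and combinations were tested on spheroids built from tumor cells plus HUVEC and hMSC, at half-log dilutions starting at or near clinical Cmax, else 10 microM; final DMSO 0.25% (v/v).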

Cn1ncnc1[C@H]1c2n[nH]c(=O)c3cc(F)cc(c23)N[C@@H]1c1ccc(F)cc1 + Cn1nnc2c(C(N)=O)ncn2c1=O
< 9.49 nM: IC50 (second compound 1 µM) | IC50 (second compound 3.16 µM) | IC50 (second compound 10 µM) | IC50 (second compound 31.6 µM) | IC50 (second compound 100 µM)
active: viability, T/C (second compound 1 µM, first compound 0.00949 µM) 3.46% | viability, T/C (second compound 1 µM, first compound 0.03 µM) 3.69% | viability, T/C (second compound 1 µM, first compound 0.0949 µM) 2.71% | viability, T/C (second compound 1 µM, first compound 0.3 µM) 3.04% | viability, T/C (second compound 1 µM, first compound 0.949 µM) 3.81% | viability, T/C (second compound 1 µM, first compound 3 µM) 3.16% | viability, T/C (second compound 3.16 µM, first compound 0.00949 µM) 3.37% | viability, T/C (second compound 3.16 µM, first compound 0.03 µM) 3.4% | viability, T/C (second compound 3.16 µM, first compound 0.0949 µM) 3.93% | viability, T/C (second compound 3.16 µM, first compound 0.3 µM) 3.87% | viability, T/C (second compound 3.16 µM, first compound 0.949 µM) 3.65% | viability, T/C (second compound 3.16 µM, first compound 3 µM) 3.16% | viability, T/C (second compound 10 µM, first compound 0.00949 µM) 3.37% | viability, T/C (second compound 10 µM, first compound 0.03 µM) 3.82% | viability, T/C (second compound 10 µM, first compound 0.0949 µM) 3.49% | viability, T/C (second compound 10 µM, first compound 0.3 µM) 3.08% | viability, T/C (second compound 10 µM, first compound 0.949 µM) 3.95% | viability, T/C (second compound 10 µM, first compound 3 µM) 3.46% | viability, T/C (second compound 31.6 µM, first compound 0.00949 µM) 3.2% | viability, T/C (second compound 31.6 µM, first compound 0.03 µM) 3.45% | viability, T/C (second compound 31.6 µM, first compound 0.0949 µM) 3.47% | viability, T/C (second compound 31.6 µM, first compound 0.3 µM) 3.72% | viability, T/C (second compound 31.6 µM, first compound 0.949 µM) 3.28% | viability, T/C (second compound 31.6 µM, first compound 3 µM) 3.57% | viability, T/C (second compound 100 µM, first compound 0.00949 µM) 2.87% | viability, T/C (second compound 100 µM, first compound 0.03 µM) 3.97% | viability, T/C (second compound 100 µM, first compound 0.0949 µM) 3.4% | viability, T/C (second compound 100 µM, first compound 0.3 µM) 3.21% | viability, T/C (second compound 100 µM, first compound 0.949 µM) 3.43% | viability, T/C (second compound 100 µM, first compound 3 µM) 3.17%

CNCc1ccc(-c2cc(-c3nc(-c4ccc(S(=O)(=O)C(C)C)cc4)cnc3N)on2)cc1 + COc1cc2c(cc1O)CCNC21CSC2c3c(OC(C)=O)c(C)c4c(c3C(COC1=O)N1C(O)C3Cc5cc(C)c(OC)c(O)c5C(C21)N3C)OCO4
< 9.49 nM: IC50 (second compound 94.9 pM) | IC50 (second compound 0.0003 µM) | IC50 (second compound 0.000949 µM) | IC50 (second compound 0.003 µM)
inactive: viability, T/C (second compound 30 pM, first compound 0.00949 µM) 93.2% | viability, T/C (second compound 30 pM, first compound 0.03 µM) 36.2%
active: viability, T/C (second compound 30 pM, first compound 0.0949 µM) 2.15% | viability, T/C (second compound 30 pM, first compound 0.3 µM) 0.93% | viability, T/C (second compound 30 pM, first compound 0.949 µM) 0.77% | viability, T/C (second compound 30 pM, first compound 3 µM) 0.11% | viability, T/C (second compound 94.9 pM, first compound 0.00949 µM) 8.16% | viability, T/C (second compound 94.9 pM, first compound 0.03 µM) 1.5% | viability, T/C (second compound 94.9 pM, first compound 0.0949 µM) 1.02% | viability, T/C (second compound 94.9 pM, first compound 0.3 µM) 0.78% | viability, T/C (second compound 94.9 pM, first compound 0.949 µM) 0.59% | viability, T/C (second compound 94.9 pM, first compound 3 µM) 0.11% | viability, T/C (second compound 0.0003 µM, first compound 0.00949 µM) 0.82% | viability, T/C (second compound 0.0003 µM, first compound 0.03 µM) 0.84% | viability, T/C (second compound 0.0003 µM, first compound 0.0949 µM) 0.73% | viability, T/C (second compound 0.0003 µM, first compound 0.3 µM) 0.7% | viability, T/C (second compound 0.0003 µM, first compound 0.949 µM) 0.5% | viability, T/C (second compound 0.0003 µM, first compound 3 µM) 0.1% | viability, T/C (second compound 0.000949 µM, first compound 0.00949 µM) 1.01% | viability, T/C (second compound 0.000949 µM, first compound 0.03 µM) 0.87% | viability, T/C (second compound 0.000949 µM, first compound 0.0949 µM) 0.88% | viability, T/C (second compound 0.000949 µM, first compound 0.3 µM) 0.66% | viability, T/C (second compound 0.000949 µM, first compound 0.949 µM) 0.34% | viability, T/C (second compound 0.000949 µM, first compound 3 µM) 0.11% | viability, T/C (second compound 0.003 µM, first compound 0.00949 µM) 0.11% | viability, T/C (second compound 0.003 µM, first compound 0.03 µM) 0.11% | viability, T/C (second compound 0.003 µM, first compound 0.0949 µM) 0.09% | viability, T/C (second compound 0.003 µM, first compound 0.3 µM) 0.1% | viability, T/C (second compound 0.003 µM, first compound 0.949 µM) 0.1% | viability, T/C (second compound 0.003 µM, first compound 3 µM) 0.15%
22.8 nM: IC50 (second compound 30 pM)
